# Data published in US9777015B2, “Useful thiophene derivatives in the treatment of diabetes” (METABRAIN RESEARCH, priority 2012, dated 2017).
# Key:
# [1] = test system: hepatocytes isolated from Wistar rat liver; assay: Test of inhibition of hepatic production of glucose (isolated hepatocytes, 3 h or 20 h incubation); assay type: cell-based; conditions: Rattus norvegicus, Hepatocyte, 3 h, hepatic glucose production, rat hepatocytes, 3 h incubation
# Summary of the method: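 Hepatocytes from 24 h-fasted Wistar rats were cultured overnight in glucose-free RPMI with hydrocortisone (7.10^−5M). Glucose production was run for 3 h in Krebs with lactate/pyruvate plus compounds (0.1% DMSO final), or after an added 20 h pretreatment during the RPMI culture. Supernatant glucose was measured by glucose oxidase and expressed per mg protein (Lowry).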
# INS-1 cells = assay: Stimulation test of insulin secretion by INS-1 cells; assay type: cell-based; conditions: Rattus norvegicus, 1 h incubation, 3.5 mM glucose
# Protocol: The different compounds were tested on an INS-1 beta-pancreatic line in order to evaluate their capability of potentializing the insulin secretion in response to glucose. Very briefly, the cells are cultivated in a culture medium, RPMI 1640 with 10 mM glucose containing 1 mM of sodium pyruvate, 50 μM of 2-mercaptoethanol, 2 mM of glutamine, 10 mM of HEPES, 100 IU/mL of penicillin, 100 μg/mL of streptomycin and 10% of inactivated fetal calf serum, as described by Asfari et al.. For the insulin secretion test, the INS-1 cells are sown and cultivated in 96-well plates. After 3 days of cultivation at 37° C. in a humid atmosphere (95% air/5% CO2), the medium is removed and the cells are incubated for 16 h in a medium containing 5 mM of glucose and 1% of inactivated fetal calf serum. On the day of the test, the cells are washed with a Krebs buffer (pH 7.4) containing 0.1% of bovine albumin and then pre-incubated for 30 min at 37° C. in this same buffer containing 2.8 mM of glucose. Finally, the cells are again washed with Krebs buffer and then incubated for 1 h in the buffer of the secretion test (Krebs, pH 7.4 containing 0.1% of bovine albumin and 3.5 mM of glucose and molecules to be evaluated). At the end of the test, the cell supernatant is recovered in order to measure therein the secreted insulin, by means of an ELISA kit using a rat anti-insulin antibody (ELISA Alpco Cat no. 80-INSRTH-E10). Each condition is tested in triplicate. The 3.5 mM glucose, the 10^−7M GLP-1 and the Forskoline 10^−7/IBMX 10^−5M mixtures are used as positive controls of the test. A compound stimulates the secretion of insulin if this factor is greater than or equal to 130% of the control for a given glucose dose.
# [2] = test system: isolated perfused pancreases of N0STZ diabetic rats; assay: Insulin secretion in response to glucose at isolated perfused pancreases of N0STZ diabetic rats; design: species or system rat; conditions: isolated perfused pancreases of N0STZ diabetic rats
# Protocol: The pancreas was taken on rats made to be diabetic by injection of Streptozotocin on the day of birth and anesthetized with Pentobarbital (Nembutal©: 45 mg/kg; intraperitoneal route). These rats have a specific deficiency of the insulin response to glucose, as observed in humans with diabetes of type II. The isolation and the perfusion of the pancreas were achieved according to a modification of the procedure described by Sussman et al.. The effect of the compounds or reference substances is tested for 35 minutes (from t=20 min to t=55 min) in Krebs buffer in the absence (GO) or in the presence of glucose at 2.8 mM (G2.8 mM), and then 20 minutes (from t=55 min to t=75 min) in the presence of glucose 16.5 mM. The concentration of insulin secreted into the medium is measured by an Elisa assay (ELISA Alpco Cat no. 80-INSRTH-E10). The results are expressed as an average+/−SEM (Standard Error of the Mean) of several experiments.
# GK (Goto-Kakisaki) rats = assay: Antidiabetic activity in GK (Goto-Kakisaki) rats, intravenous glucose tolerance test (IVGTT); assay type: in vivo, rat; conditions: single oral dose 20 mg/kg
# Protocol: The antidiabetic activity of compound 10 was evaluated in GK rats, a non-obese model of diabetes of type II. This model was obtained by cross-breeding of Wistar rats selected on the basis of a slight intolerance to glucose. These rats have the majority of dysfunctions observed in diabetes of type II in humans: hyperglycemia, intolerance to glucose, insulin-resistance, and deteriorated insulin response to glucose. These animals were bred at Metabrain and were housed in an animal housing facility with a regulated temperature (22±2° C.) under constant humidity (50±20%) with a day/night cycle of 12 h (light from 7 h-19 h) and have access ad libitum to food and drink. The housing and experimentation conditions comply with the European directives relating to health and ethical treatment of laboratory animals (ETS123). In this study, the rats used are female 16-week old GK rats having fasted for 2 hours before beginning the study (postabsorptive condition). A glucose tolerance test is carried out via an intravenous route (IVGTT) on 2 groups of rats: One group treated with the compound 10 orally at the single dose of 20 mg/kg and a control group treated orally with the carrier. The tolerance test is carried out 1 h after oral administration of compound 10 on the animals anesthetized beforehand with pentobarbital (45 mg/kg via an intraperitoneal route). A blood sample was taken at TO just before administration of the glucose load (0.5 g/kg via an intravenous route) and at x T5, T10, T15, T20 and T30 min after the glucose load. The blood samples are centrifuged in order to collect the plasma for determining glycemia. The results shown above are expressed • as a percentage of the decrease of glycemia at TO for the group treated with the compound 10, compared with the control group. • as a percentage of the decrease of AUC (area under the curve of glycemia versus time) for the group treated with the compound 10 as compared with the control group.
compound,measurement,setting,value
"CCOC(=O)Cc1cc(C(=O)c2ccco2)sc1-c1ccc(Cl)cc1 [compound 10, ethyl 2-(2-(4-chlorophenyl)-5-(furan-2-carbonyl)thiophen-3-yl)acetate]",activity at 50 µM,"[1]; compound at 50 μM, read-out: HGP % of ctrl @ 50 μM",64%
same,activity at 100 µM,"[1]; compound at 100 μM, read-out: HGP % of ctrl @ 100 μM",39%
same,activity at 10 µM,"INS-1 cells; INS1, compound at 10 μM, read-out: INS-1 % of ctrl @ 10 μM",144%
same,activity at 50 µM,"INS-1 cells; INS1, compound at 50 μM, read-out: INS-1 % of ctrl @ 50 μM",210%
same,restoring insulin secretion in response to glucose,[2],strongest secretions
same,intolerance to glucose,"GK (Goto-Kakisaki) rats; GK rats, IVGTT 1 h after administration",capable of reducing
same,basal hyperglycemia,"GK (Goto-Kakisaki) rats; GK rats, glycemia at T0",capable of reducing
same,"AUC, % of activity","GK (Goto-Kakisaki) rats; female GK rats, IVGTT, vs control group treated with carrier",−35%
same,"Glycemia at T0, % of activity","GK (Goto-Kakisaki) rats; female GK rats, vs control group treated with carrier",−11%
